Data published in patent US11344499B2, “Nanoparticles as delivery vehicles of active ingredients and methods for the production thereof” (CONSIGLIO NAZIONALE DELLE RICERCHE, priority 2017, dated 2022).

Columns and labels:
HT29 cells [1] = test: Count of alive cells after treatment; type: cell-based, human; conditions: HT29, 50 μM of 9-HSA, 24 h
Experimental: Briefly 5.0×10^3 human colon adenocarcinoma cell line HT29 cells were seeded in 200 μl of growth medium in replicate (n=4) in a 48-well culture plate. After 24 h of cell growth, the medium was removed and the cells were incubated with the experimental medium containing KNPs-9HSA (50 μM of 9-HSA) and free 9-HSA. Twenty-four hours after treatment, cells were detached and counted.

HT29 cells [2] = test: Cell cycle analysis by flow cytometry (PI); type: cell-based, human; conditions: HT29, 50 μM of 9-HSA, 24 h
Experimental: Cell cycle analysis was performed as follows: 5.0×10^3 HT29 cells were seeded in 200 μl of growth medium in a 48-well culture plate. After 24 h of cell growth, the medium was removed and the cells were incubated with the experimental medium containing KER-NPs-9HSA (50 μM of 9-HSA) and free 9-HSA. Twenty-four hours after treatment, cells were trypsinized, washed twice with PBS and then centrifuged. Cells pellet was re-suspended in 0.01% Nonidet-P40 (Sigma-Aldrich), 10 μg/mL of RNasi (Sigma-Aldrich), 0.1% of sodium citrate (Sigma-Aldrich), 50 μg/mL di propidium iodide (PI) (Sigma-Aldrich), and kept in the dark for 30 min at room temperature. Florescence was detected by a flow cytometry (Beckman Coulter Epics XL-MCL), while cell cycle analysis was performed with Cell Cycle program (MODEFIT 5.0).

CCCCCCCCCC(O)CCCCCCCC(=O)O (centres unmarked) [Entry 9-HSA, 9-hydroxystearic acid]
tumor cell proliferation (number of alive cells) (HT29 cells [1]): inhibit tumor cell proliferation
cell cycle effect (HT29 cells [2]): blocks the cell cycle in the G0/G1 phase
